# Source: patent publication US20220142941A1, “COMBINATION THERAPEUTIC REGIMENS WITH 1,6-DIBROMO-1,6-DIDEOXY-DULCITOL” (Eleison Pharmaceuticals LLC, priority 2019, published 2022)
# Experiments:
# Assay in all cases: DBD combination treatment, viability enhancement factor
# Assay type in all cases: cell-based, human
# GS324coreNS = GS324coreNS (p19), labelled therapy combined with crystalline DBD polymorph
# Protocol: (§1) Crystalline DBD polymorph treatment was combined with chemotherapy, radiotherapy and targeted inhibitors to determine whether the crystalline DBD polymorph form could: enhance efficacy of the conventional therapies; enhance efficacy when combined with newer ‘targeted’ therapies; or would make (a subset of) cultures more sensitive to this treatment.
# (§2) Therefore, cultures were treated with: • a.
# GS289NS = GS289NS (p15 + p16), labelled therapy combined with crystalline DBD polymorph;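 note: DBD at its own IC50 and half IC50 determined at Day 5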
# Protocol: as §1, §2
# GS104periNS = GS104periNS (p21 + p22), labelled therapy combined with crystalline DBD polymorph
# Protocol: as §1, §2
# GS249NS = GS249NS (p17), labelled therapy combined with crystalline DBD polymorph
# Protocol: as §1, §2
# GS186periNS = GS186periNS (p15), labelled therapy combined with crystalline DBD polymorph
# Protocol: as §1, §2
# GS257NS = GS257NS (p16 + p17), labelled therapy combined with crystalline DBD polymorph;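 note: DBD at its own IC50 and half IC50 determined at Day 5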
# Protocol: as §1, §2
# GS281NS = GS281NS (p15), labelled therapy combined with crystalline DBD polymorph
# Protocol: as §1, §2
# GS203NS = conditions: Day 8; GS203NS (P19 + p18); labelled therapy combined with crystalline DBD polymorph
# Protocol: as §1, §2
# GS245NS = GS245NS (p16 + p15), labelled therapy combined with crystalline DBD polymorph
# Protocol: as §1, §2
# GS304NS = GS304NS (p16), labelled therapy combined with crystalline DBD polymorph
# Protocol: as §1, §2
# GS184NS = GS184NS (p18 + p19), labelled therapy combined with crystalline DBD polymorph;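 note: DBD at its own IC50 and half IC50 determined at Day 5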
# Protocol: as §1, §2
# GS323periNS = conditions: Day 5; GS323periNS (p20 + p19); labelled therapy combined with crystalline DBD polymorph
# Protocol: as §1, §2
# GS279periNS = GS279periNS (p16 + p15), labelled therapy combined with crystalline DBD polymorph;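 note: DBD at its own IC50 and half IC50 determined at Day 5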
# Protocol: as §1, §2
# GS102periNS = GS102periNS (p20 + p21), labelled therapy combined with crystalline DBD polymorph
# Protocol: as §1, §2
# GS224NS = GS224NS (p17), labelled therapy combined with crystalline DBD polymorph
# Protocol: as §1, §2
# GS186coreNS = GS186coreNS (p18), labelled therapy combined with crystalline DBD polymorph
# Protocol: as §1, §2
# GS279coreNS = conditions: Day 5; GS279coreNS (p12 + p13); labelled therapy combined with crystalline DBD polymorph
# Protocol: as §1, §2
# GS365NS = GS365NS (p17 + p16), labelled therapy combined with crystalline DBD polymorph
# Protocol: as §1, §2
# GS359NS = GS359NS (p15 + p14), labelled therapy combined with crystalline DBD polymorph
# Protocol: as §1, §2
# GS261NS = GS261NS (p13), labelled therapy combined with crystalline DBD polymorph
# Protocol: as §1, §2
SMILES,enhancement factor (viability % of most effective monotherapy divided by viability % of combination) (GS324coreNS; Day 5),enhancement factor (viability % of most effective monotherapy divided by viability % of combination) (GS324coreNS; Day 8),enhancement factor (viability % of most effective monotherapy divided by viability % of combination) (GS289NS; Day 5),enhancement factor (viability % of most effective monotherapy divided by viability % of combination) (GS289NS; Day 8),enhancement factor (viability % of most effective monotherapy divided by viability % of combination) (GS104periNS; Day 8),enhancement factor (viability % of most effective monotherapy divided by viability % of combination) (GS249NS; Day 5),enhancement factor (viability % of most effective monotherapy divided by viability % of combination) (GS186periNS; Day 5),enhancement factor (viability % of most effective monotherapy divided by viability % of combination) (GS186periNS; Day 8),enhancement factor (viability % of most effective monotherapy divided by viability % of combination) (GS257NS; Day 5),enhancement factor (viability % of most effective monotherapy divided by viability % of combination) (GS257NS; Day 8),enhancement factor (viability % of most effective monotherapy divided by viability % of combination) (GS281NS; Day 5),enhancement factor (viability % of most effective monotherapy divided by viability % of combination) (GS281NS; Day 8),enhancement factor (viability % of most effective monotherapy divided by viability % of combination) (GS245NS; Day 5),enhancement factor (viability % of most effective monotherapy divided by viability % of combination) (GS245NS; Day 8),enhancement factor (viability % of most effective monotherapy divided by viability % of combination) (GS304NS; Day 8),enhancement factor (viability % of most effective monotherapy divided by viability % of combination) (GS184NS; Day 5),enhancement factor (viability % of most effective monotherapy divided by viability % of combination) (GS184NS; Day 8),enhancement factor (viability % of most effective monotherapy divided by viability % of combination) (GS323periNS),enhancement factor (viability % of most effective monotherapy divided by viability % of combination) (GS279periNS; Day 5),enhancement factor (viability % of most effective monotherapy divided by viability % of combination) (GS279periNS; Day 8),other results
C/C(=C\C(=O)Nc1ccccc1C(=O)O)c1ccc2ccccc2c1 [BIBR1532],1.282,1.713,1.383,1.879,1.247,0.909,2.900,1.010,1.322,2.162,0.641,2.457,1.364,1.936,1.065,1.752,1.367,0.959,1.361,1.214,enhancement factor (viability % of most effective monotherapy divided by viability % of combination) (GS203NS): 1.110; enhancement factor (viability % of most effective monotherapy divided by viability % of combination) (GS102periNS; Day 5): 1.414; enhancement factor (viability % of most effective monotherapy divided by viability % of combination) (GS102periNS; Day 8): 2.661; enhancement factor (viability % of most effective monotherapy divided by viability % of combination) (GS224NS; Day 5): 0.969; enhancement factor (viability % of most effective monotherapy divided by viability % of combination) (GS224NS; Day 8): 0.469; enhancement factor (viability % of most effective monotherapy divided by viability % of combination) (GS186coreNS; Day 5): 1.787; enhancement factor (viability % of most effective monotherapy divided by viability % of combination) (GS186coreNS; Day 8): 1.498; enhancement factor (viability % of most effective monotherapy divided by viability % of combination) (GS279coreNS): 1.526; enhancement factor (viability % of most effective monotherapy divided by viability % of combination) (GS365NS; Day 5): 1.767; enhancement factor (viability % of most effective monotherapy divided by viability % of combination) (GS365NS; Day 8): 2.954; enhancement factor (viability % of most effective monotherapy divided by viability % of combination) (GS359NS; Day 5): 2.499; enhancement factor (viability % of most effective monotherapy divided by viability % of combination) (GS359NS; Day 8): 1.168
C[C@]1(c2nc3c(C(N)=O)cccc3[nH]2)CCCN1 [ABT-888],1.275,1.322,1.112,1.113,1.810,2.994,1.134,1.319,0.922,1.053,0.933,0.812,1.256,0.991,1.933,1.084,1.044,1.106,1.146,1.102,enhancement factor (viability % of most effective monotherapy divided by viability % of combination) (GS104periNS; Day 5): 1.175; enhancement factor (viability % of most effective monotherapy divided by viability % of combination) (GS249NS; Day 8): 5.030; enhancement factor (viability % of most effective monotherapy divided by viability % of combination) (GS304NS; Day 5): 1.245; enhancement factor (viability % of most effective monotherapy divided by viability % of combination) (GS102periNS; Day 5): 1.248; enhancement factor (viability % of most effective monotherapy divided by viability % of combination) (GS102periNS; Day 8): 1.055; enhancement factor (viability % of most effective monotherapy divided by viability % of combination) (GS224NS; Day 5): 1.105; enhancement factor (viability % of most effective monotherapy divided by viability % of combination) (GS224NS; Day 8): 1.201; enhancement factor (viability % of most effective monotherapy divided by viability % of combination) (GS186coreNS; Day 5): 1.394; enhancement factor (viability % of most effective monotherapy divided by viability % of combination) (GS186coreNS; Day 8): 1.359; enhancement factor (viability % of most effective monotherapy divided by viability % of combination) (GS279coreNS): 1.321; enhancement factor (viability % of most effective monotherapy divided by viability % of combination) (GS261NS; Day 5): 1.388; enhancement factor (viability % of most effective monotherapy divided by viability % of combination) (GS261NS; Day 8): 1.631; enhancement factor (viability % of most effective monotherapy divided by viability % of combination) (GS365NS; Day 5): 1.096; enhancement factor (viability % of most effective monotherapy divided by viability % of combination) (GS365NS; Day 8): 1.052; enhancement factor (viability % of most effective monotherapy divided by viability % of combination) (GS359NS; Day 5): 1.175; enhancement factor (viability % of most effective monotherapy divided by viability % of combination) (GS359NS; Day 8): 1.148
